Test results: patent US9873696B2, “Neprilysin inhibitors” (THERAVANCE BIOPHARMA R&D IP, LLC, priority 2010, dated 2018)
pKi: −log10 of the molar value.

The compounds below were run against T1, human NEP (Homo sapiens, UniProt P08473) (assay: In vitro enzyme inhibition assay at human NEP (Assay 1)). Details: recombinant enzyme, fluorogenic peptide substrate, 37° C.
T1 construct: purchased R&D Systems, Minneapolis, Minn; 1182-ZN
Type: biochemical
How it was run: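 Recombinant enzyme preincubated with compound 30 min at 37 °C, then 10 μM Mca-D-Arg-Arg-Leu-Dap-(Dnp)-OH added in 50 mM HEPES pH 7.5, 100 mM NaCl, 0.01% Tween-20, 10 μM ZnSO4; stopped after 20 min with acetic acid. Fluorescence read at 320/405 nm; Ki from nonlinear fit of v=v0/[1+(I/K′)], reported as pKi.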

T1 sequence (P08473 whole entry): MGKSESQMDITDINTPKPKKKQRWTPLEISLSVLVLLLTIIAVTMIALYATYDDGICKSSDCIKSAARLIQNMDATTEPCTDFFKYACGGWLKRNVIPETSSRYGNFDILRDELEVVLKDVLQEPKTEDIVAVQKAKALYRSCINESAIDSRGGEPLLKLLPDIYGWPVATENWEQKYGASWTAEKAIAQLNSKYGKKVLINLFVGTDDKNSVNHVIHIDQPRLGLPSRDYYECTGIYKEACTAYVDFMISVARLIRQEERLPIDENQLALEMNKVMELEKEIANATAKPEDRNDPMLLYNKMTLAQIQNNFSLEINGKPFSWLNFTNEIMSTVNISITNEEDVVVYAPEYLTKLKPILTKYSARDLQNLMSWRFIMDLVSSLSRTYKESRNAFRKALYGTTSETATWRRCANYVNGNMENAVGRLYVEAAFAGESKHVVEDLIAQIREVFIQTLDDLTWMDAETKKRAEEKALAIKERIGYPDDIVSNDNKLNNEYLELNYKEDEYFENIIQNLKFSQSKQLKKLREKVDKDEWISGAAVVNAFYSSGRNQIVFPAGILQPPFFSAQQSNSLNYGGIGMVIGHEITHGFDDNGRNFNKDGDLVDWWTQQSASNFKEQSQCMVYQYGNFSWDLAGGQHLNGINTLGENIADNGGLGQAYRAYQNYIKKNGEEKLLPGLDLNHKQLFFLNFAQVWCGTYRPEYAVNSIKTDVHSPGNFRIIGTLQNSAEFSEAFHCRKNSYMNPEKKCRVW

SMILES	pKi
O=C(NN(Cc1ccc(-c2cc(F)cc(F)c2)cc1)C[C@H](O)C(=O)O)c1cc(O)no1 [Example 8-26, (S)-3-[N-(3′,5′-Difluoro-biphenyl-4-ylmethyl)-N′-(3-hydroxy-isoxazole-5-carbonyl)-hydrazino]-2-hydroxy-propionic acid]	7.00 to 7.90
Cc1c(Cl)cc(Cl)cc1-c1ccc(CN(C[C@H](O)C(=O)O)NC(=O)c2cc(O)no2)cc1 [Example 8-28, (S)-3-[N-(3′,5′-Dichloro-2′-methyl-biphenyl-4-ylmethyl)-N′-(3-hydroxy-isoxazole-5-carbonyl)-hydrazino]-2-hydroxy-propionic acid]	7.00 to 7.90
O=C(NN(Cc1ccc(-c2cc(Cl)ccc2F)cc1)C[C@@H](O)C(=O)O)c1cc(Cl)no1 [Example 8-29, (R)-3-[N-(5′-Chloro-2′-fluoro-biphenyl-4-ylmethyl)-N′-(3-chloro-isoxazole-5-carbonyl)-hydrazino]-2-hydroxy-propionic acid]	8.00 to 8.90
CC(C)(C)c1cc(C(=O)NN(Cc2ccc(-c3cc(Cl)ccc3F)cc2)C[C@@H](O)C(=O)O)on1 [Example 8-33, (R)-3-[N′-(3-tert-Butyl-isoxazole-5-carbonyl)-N-(5′-chloro-2′-fluoro-biphenyl-4-ylmethyl)-hydrazino]-2-hydroxy-propionic acid]	8.00 to 8.90
O=C(NN(Cc1ccc(-c2cc(Cl)ccc2F)cc1)C[C@@H](O)C(=O)O)c1cc(-c2cccnc2)on1 [Example 8-34, (R)-3-[N-(5′-Chloro-2′-fluoro-biphenyl-4-ylmethyl)-N′-(5-pyridin-3-yl-isoxazole-3-carbonyl)-hydrazino]-2-hydroxy-propionic acid]	8.00 to 8.90
O=C(NN(Cc1ccc(-c2cc(Cl)ccc2F)cc1)C[C@@H](O)C(=O)O)c1cc(-c2ccccc2O)n[nH]1 [Example 8-38, (R)-3-{N-(5′-Chloro-2′-fluoro-biphenyl-4-ylmethyl)-N′-[5-(2-hydroxy-phenyl)-2H-pyrazole-3-carbonyl]-hydrazino}-2-hydroxy-propionic acid]	≥ 9.00
COc1ccccc1-c1cc(C(=O)NN(Cc2ccc(-c3cc(Cl)ccc3F)cc2)C[C@@H](O)C(=O)O)[nH]n1 [Example 8-39, (R)-3-{N-(5′-Chloro-2′-fluoro-biphenyl-4-ylmethyl)-N′-[5-(2-methoxy-phenyl)-2H-pyrazole-3-carbonyl]-hydrazino}-2-hydroxy-propionic acid]	≥ 9.00
CC(C)(O)c1cc(C(=O)NN(Cc2ccc(-c3cc(Cl)ccc3F)cc2)C[C@@H](O)C(=O)O)[nH]n1 [Example 8-40, (R)-3-{N-(5′-Chloro-2′-fluoro-biphenyl-4-ylmethyl)-N′-[5-(1-hydroxy-1-methyl-ethyl)-2H-pyrazole-3-carbonyl]-hydrazino}-2-hydroxy-propionic acid]	≥ 9.00
O=C(NN(Cc1ccc(-c2cc(Cl)ccc2F)cc1)C[C@@H](O)C(=O)O)c1cc(-c2cc(Cl)ccc2Cl)n[nH]1 [Example 8-41, (R)-3-{N-(5′-Chloro-2′-fluoro-biphenyl-4-ylmethyl)-N′-[5-(2,5-dichloro-phenyl)-2H-pyrazole-3-carbonyl]-hydrazino}-2-hydroxy-propionic acid]	≥ 9.00
CCCCc1cc(C(=O)NN(Cc2ccc(-c3cc(Cl)ccc3F)cc2)C[C@@H](O)C(=O)O)[nH]n1 [Example 8-42, (R)-3-[N′-(5-Butyl-2H-pyrazole-3-carbonyl)-N-(5′-chloro-2′-fluoro-biphenyl-4-ylmethyl)-hydrazino]-2-hydroxy-propionic acid]	≥ 9.00
O=C(NN(Cc1ccc(-c2cc(Cl)ccc2F)cc1)C[C@@H](O)C(=O)O)c1cc(C2CC2)n[nH]1 [Example 8-43, (R)-3-[N-(5′-Chloro-2′-fluoro-biphenyl-4-ylmethyl)-N′-(5-cyclopropyl-2H-pyrazole-3-carbonyl)-hydrazino]-2-hydroxy-propionic acid]	≥ 9.00
CC(C)c1cc(C(=O)NN(Cc2ccc(-c3cc(Cl)ccc3F)cc2)C[C@@H](O)C(=O)O)[nH]n1 [Example 8-44, (R)-3-[N-(5′-Chloro-2′-fluoro-biphenyl-4-ylmethyl)-N′-(5-isopropyl-2H-pyrazole-3-carbonyl)-hydrazino]-2-hydroxy-propionic acid]	≥ 9.00
CC(=O)c1cc(C(=O)NN(Cc2ccc(-c3cc(Cl)ccc3F)cc2)C[C@H](O)C(=O)O)[nH]n1 [Example 8-45, (S)-3-[N′-(5-Acetyl-2H-pyrazole-3-carbonyl)-N-(5′-chloro-2′-fluoro-biphenyl-4-ylmethyl)-hydrazino]-2-hydroxy-propionic acid]	≥ 9.00
CC(=O)c1cc(C(=O)NN(Cc2ccc(-c3cc(Cl)ccc3C)cc2)C[C@H](O)C(=O)O)[nH]n1 [Example 8-47, (S)-3-[N′-(5-Acetyl-2H-pyrazole-3-carbonyl)-N-(5′-chloro-2′-methyl-biphenyl-4-ylmethyl)-hydrazino]-2-hydroxy-propionic acid]	8.00 to 8.90

Continued, values first:

pKi	SMILES
≥ 9.00	O=C(NN(Cc1ccc(-c2cc(Cl)cc(Cl)c2)cc1)C[C@@H](O)C(=O)O)c1cc(O)no1 [Example 8-25, (R)-3-[N-(3′,5′-Dichloro-biphenyl-4-ylmethyl)-N′-(3-hydroxy-isoxazole-5-carbonyl)-hydrazino]-2-hydroxy-propionic acid]
≥ 9.00	O=C(NN(Cc1ccc(-c2cc(O)cc(Cl)c2)cc1)C[C@H](O)C(=O)O)c1cc(O)no1 [Example 8-27, (S)-3-[N-(5′-Chloro-3′-hydroxy-biphenyl-4-ylmethyl)-N′-(3-hydroxy-isoxazole-5-carbonyl)-hydrazino]-2-hydroxy-propionic acid]
≥ 9.00	CC(C)Cc1cc(C(=O)NN(Cc2ccc(-c3cc(Cl)ccc3F)cc2)C[C@@H](O)C(=O)O)on1 [Example 8-30, (R)-3-[N-(5′-Chloro-2′-fluoro-biphenyl-4-ylmethyl)-N′-(3-isobutyl-isoxazole-5-carbonyl)-hydrazino]-2-hydroxy-propionic acid]
≥ 9.00	CCCc1cc(C(=O)NN(Cc2ccc(-c3cc(Cl)ccc3F)cc2)C[C@@H](O)C(=O)O)on1 [Example 8-31, (R)-3-[N-(5′-Chloro-2′-fluoro-biphenyl-4-ylmethyl)-N′-(3-propyl-isoxazole-5-carbonyl)-hydrazino]-2-hydroxy-propionic acid]
≥ 9.00	CC(C)c1cc(C(=O)NN(Cc2ccc(-c3cc(Cl)ccc3F)cc2)C[C@@H](O)C(=O)O)on1 [Example 8-32, (R)-3-[N-(5′-Chloro-2′-fluoro-biphenyl-4-ylmethyl)-N′-(3-isopropyl-isoxazole-5-carbonyl)-hydrazino]-2-hydroxy-propionic acid]
≥ 9.00	CN(C)C(=O)c1cc(C(=O)NN(Cc2ccc(-c3cc(Cl)ccc3F)cc2)C[C@@H](O)C(=O)O)[nH]n1 [Example 8-35, (R)-3-[N-(5′-Chloro-2′-fluoro-biphenyl-4-ylmethyl)-N′-(5-dimethylcarbamoyl-2H-pyrazole-3-carbonyl)-hydrazino]-2-hydroxy-propionic acid]
≥ 9.00	O=C(NN(Cc1ccc(-c2cc(Cl)ccc2F)cc1)C[C@@H](O)C(=O)O)c1cc(-c2ccccn2)n[nH]1 [Example 8-36, (R)-3-[N-(5′-Chloro-2′-fluoro-biphenyl-4-ylmethyl)-N′-(5-pyridin-2-yl-2H-pyrazole-3-carbonyl)-hydrazino]-2-hydroxy-propionic acid]
